Consider one molecule from ChEMBL document CHEMBL5727603 (2020).

Molecules are shown by their SMILES.

The target of the experiment is Rho-associated protein kinase 2 (Homo sapiens, UniProt O75116). As to the kind of experiment: Binding Assay: ROCK-II inhibitory activity can be measured using the ROCK-II Assay Kit (Molecular Devices, inc.; Sunnyvale, Calif.).
Rho-associated protein kinase 2, sequence (O75116 whole entry): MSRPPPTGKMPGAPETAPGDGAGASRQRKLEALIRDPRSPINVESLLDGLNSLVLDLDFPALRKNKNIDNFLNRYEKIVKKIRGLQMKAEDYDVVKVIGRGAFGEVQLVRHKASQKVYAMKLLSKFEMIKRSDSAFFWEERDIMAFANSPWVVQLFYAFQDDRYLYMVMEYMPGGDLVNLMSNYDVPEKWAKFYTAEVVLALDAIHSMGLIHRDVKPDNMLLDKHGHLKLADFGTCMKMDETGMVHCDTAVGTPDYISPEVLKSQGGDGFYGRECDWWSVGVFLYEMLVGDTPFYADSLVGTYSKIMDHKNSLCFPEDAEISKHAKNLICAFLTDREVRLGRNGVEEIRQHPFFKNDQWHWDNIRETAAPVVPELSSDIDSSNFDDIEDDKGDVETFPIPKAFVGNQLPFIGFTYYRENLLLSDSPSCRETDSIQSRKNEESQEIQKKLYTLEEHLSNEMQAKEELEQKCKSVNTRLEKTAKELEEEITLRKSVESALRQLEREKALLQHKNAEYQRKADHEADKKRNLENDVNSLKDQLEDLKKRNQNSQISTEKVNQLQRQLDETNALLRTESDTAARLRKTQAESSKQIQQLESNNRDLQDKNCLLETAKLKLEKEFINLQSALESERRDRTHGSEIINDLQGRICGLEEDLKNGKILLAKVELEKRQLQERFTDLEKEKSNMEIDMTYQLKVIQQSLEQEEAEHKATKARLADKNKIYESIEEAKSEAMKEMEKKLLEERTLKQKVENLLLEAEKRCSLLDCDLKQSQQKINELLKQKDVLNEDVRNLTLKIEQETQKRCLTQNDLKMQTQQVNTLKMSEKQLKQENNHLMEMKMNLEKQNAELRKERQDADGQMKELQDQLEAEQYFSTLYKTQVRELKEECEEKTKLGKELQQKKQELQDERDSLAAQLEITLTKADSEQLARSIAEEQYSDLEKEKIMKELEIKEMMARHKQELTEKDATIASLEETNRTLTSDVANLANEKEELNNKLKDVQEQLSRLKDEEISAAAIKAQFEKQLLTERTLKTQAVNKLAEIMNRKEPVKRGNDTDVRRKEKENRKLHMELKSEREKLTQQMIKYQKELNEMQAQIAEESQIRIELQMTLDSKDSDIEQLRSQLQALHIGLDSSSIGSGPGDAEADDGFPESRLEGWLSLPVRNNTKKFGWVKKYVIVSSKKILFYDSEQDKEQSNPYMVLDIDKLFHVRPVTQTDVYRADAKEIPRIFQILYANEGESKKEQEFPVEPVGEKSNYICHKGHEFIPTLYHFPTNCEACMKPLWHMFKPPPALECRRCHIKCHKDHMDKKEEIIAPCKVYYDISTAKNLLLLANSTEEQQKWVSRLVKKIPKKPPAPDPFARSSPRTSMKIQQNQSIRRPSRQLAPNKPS

Usually IC50 stands for the concentration at which inhibition is half-maximal. Higher therefore signals a need for much substance. As for `O=C(Nc1ccccc1-c1nc(Nc2ccc3[nH]ncc3c2)c2ccccc2n1)c1ccccn1`, the IC50 is 8.3 µM.
